This note sets out measurements from PMC10451648 (Antibiotics, 2023).

One series addresses Proteinase K (Parengyodontium album, UniProt P06873). Nature of the series: Digestion assay with proteinase K. Format: in vitro ADME. The conditions noted are these: 0.002% (v/v) proteinase K, peptide 1 mM, 37 °C, 24 h; fragments by LC-MS. The protocol:
The chemical stability of 17KKV-Aib (1) was investigated using a digestion assay with proteinase K, which is a widely used representative protease for assessing sensitivity to digestive enzymes. Proteinase K is widely recognized for its ability to cleave peptide bonds on the carboxylic sides of aliphatic, aromatic, or highly hydrophobic amino acids. Peptide 1 was treated with proteinase K for 24 h, and the remaining peptide fragments were evaluated using liquid phase chromatography–mass spectrometry (LC-MS) analysis. […] All the peptides were synthesized using Fmoc-assisted solid-phase methods by Liberty Blue. […]
Each peptide (1 mM) was treated with 0.002% (v/v) Proteinase K, and the mixture was incubated at 37 °C for 2–24 h. […] The residual peptides were assessed by analytical HPLC using an InertSustainSwift C18 column (3 µm, 25 cm × 4.6 mm, solvent A: water containing 0.1% TFA, solvent B: MeCN containing 0.1% TFA, flow rate: 1.0 mL/min, gradient: 10–90% gradient of solvent B over 30 min). The digestion assay was performed in two independent experiments, and the average values from them were calculated. […]
Figure 4 Chemical stability of the peptides 1–8 against proteinase K. Each peptide was incubated with 0.002% (v/v) proteinase K for the indicated times at 37 °C, and the residuals were evaluated by LC-MS. […]

For the next series, the system named is S. aureus NBRC 13276. Format: cell-based, Staphylococcus aureus. The conditions noted are these: NBRC 13276, 18 h. The protocol: (§1) The antimicrobial activities of peptides 1–8 against Gram-positive Staphylococcus aureus, Gram-negative Escherichia coli DH5α, Pseudomonas aeruginosa, and multidrug-resistant P. aeruginosa (MDRP) were evaluated. The minimum inhibitory concentration (MIC) against these bacteria was measured as an indicator of antimicrobial activity, and the results are discussed in Table 2.
(§2) One type of Gram-positive bacteria, S. aureus NBRC 13276, and three Gram-negative bacteria, E. coli DH5α, P. aeruginosa NBRC 13275, and MDRP, were selected for the evaluation of the antimicrobial activity of the synthesized peptides. The selected bacterial strains were obtained from the Biological Resource Center, NITE (NBRC; Tokyo, Japan), and Escherichia coli DH5α cells were purchased from BioDynamics Laboratory, Inc. (Tokyo, Japan). The antimicrobial activities of the tested peptides 1–8 against each stain were examined by the standard broth microdilution method, as previously reported. Briefly, the bacteria were seeded and grown overnight at 37 °C on Agar media for other organisms i (Agar medium) and then collected with the media for other organisms ii (liquid medium), according to the 17th revision of Japanese Pharmacopoeia. Next, 10 μL of the peptide solution per well was added to each well of a sterile 96-well plate, and 90 μL per well of inoculation was mixed with 10^4 CFUs (colony forming units) per mL and added to each well, and the plate was incubated for 18 h at 35 °C.

The test system of the next series is P. aeruginosa NBRC 13275. The class given is cell-based, Pseudomonas aeruginosa. The settings on record: NBRC 13275, 18 h. As to the method:
as §1, §2

For series [1], the system named is multidrug-resistant P. aeruginosa (MDRP). The class given is cell-based, Pseudomonas aeruginosa. The conditions noted are these: multidrug-resistant (MDRP, 18 h). As to the method:
as §1, §2

The next series concerns Escherichia coli DH5α. The class given is cell-based. The conditions noted are these: broth microdilution, 10^4 CFUs per mL, 18 h at 35 °C; MIC = lowest concentration that completely inhibited bacterial growth; final conc. 0.39 to 100. The protocol: as §1, §2
A further series concerns human red blood cells. As to the kind of experiment: Hemolysis activity against red blood cells. The settings on record: human RBCs in 172 mM Tris-HCl pH 7.6, 30 min at 37 °C, absorbance 535 nm; DMSO = 0%, M-Lycotoxin = 100%; final peptide conc. 100 to 0.39. The protocol:
AMPs primarily target microbial membranes, leading to their antimicrobial activity through membrane lysis. However, it is important to consider their potential effects on human cell membranes, as this could raise concerns regarding cytotoxicity. […] Hemolytic activity was assessed by measuring the absorption at 535 nm, which indicates the leakage of red blood cell cytoplasmic contents and hemoglobin.
Human red blood cells (RBCs) were supplied by the Japanese Red Cross Society (Tokyo, Japan). The hemolytic assay of the synthesized peptides was performed as previously reported. Briefly, 5.0 mL of the total erythrocytes were washed three times with 172 mM Tris-HCl buffer (pH = 7.6, wash buffer:WB) and 1.0 mL of precipitated erythrocytes was diluted with 9.0 mL of WB. Then, 0.5 mL of the suspension was diluted in WB, and 50 µL of RBC solution was incubated with 50 µL of each peptide for 30 min at 37 °C (final peptide conc. from 100 to 0.39 μM). The suspensions were then centrifuged at 400 rpm for 5 min. The absorbance of the supernatant was measured at a wavelength of 535 nm. M-Lycotoxin [22], which is a typical hemolytic toxic peptide derived from Wolf spider, was used as a positive control, and the absorbance of the sample from DMSO and M-Lycotoxin treatment was defined as 0 and 100%, respectively.

≈ marks a conversion by molar mass, not a printed value. Entries after “also recorded” stand apart in the source; their conditions may differ. Square brackets hold non-standard residues; d marks the D form. Peptide text beside a SMILES is read from it. Aib = CC(C)(N)C(=O)O

Sequence of Proteinase K (P06873 106-384): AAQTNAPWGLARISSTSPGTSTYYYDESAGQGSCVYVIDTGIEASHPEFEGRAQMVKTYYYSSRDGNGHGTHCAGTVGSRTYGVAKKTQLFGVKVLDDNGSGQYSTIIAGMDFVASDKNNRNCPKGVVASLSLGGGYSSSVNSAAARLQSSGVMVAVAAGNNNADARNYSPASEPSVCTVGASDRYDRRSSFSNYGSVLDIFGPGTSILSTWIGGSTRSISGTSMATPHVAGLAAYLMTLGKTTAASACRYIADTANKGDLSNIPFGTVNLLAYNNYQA

As for `CC[C@H](C)[C@H](NC(=O)CN)C(=O)N[C@@H](CCCCN)C(=O)N[C@@H](CCCCN)C(=O)N[C@@H](Cc1ccccc1)C(=O)N[C@@H](CC(C)C)C(=O)N[C@@H](CCCCN)C(=O)N[C@@H](CO)C(=O)NC(C)(C)C(=O)N[C@@H](CCCCN)C(=O)N[C@@H](CCCCN)C(=O)N[C@@H](Cc1ccccc1)C(=O)N[C@H](C(=O)N[C@@H](CCCCN)C(=O)NC(C)(C)C(=O)N[C@@H](Cc1ccccc1)C(=O)N[C@@H](CCCCN)C(N)=O)C(C)C` [Peptide 1] (H-GIKKFLKS[Aib]KKFVK[Aib]FK-NH2), the “Cleavage site upon proteinase K treatment” value at Proteinase K is “between 5th Phe and 6th Leu and 16th Phe and 17th Lys residues; also recorded: between the fifth Phe and sixth Leu residues”. Moreover, in the series on S. aureus NBRC 13276, the “MIC, S. aureus, Gram(+)” value came out at 12.5 µM (≈ 24.9 µg/mL). Further, in the series with P. aeruginosa NBRC 13275, the “MIC, P. aeruginosa, Gram(−)” value worked out at 3.125 µM (≈ 6.24 µg/mL). Further, the “MIC, MDRP” value in series [1] turned out to be 6.25 µM (≈ 12.5 µg/mL). In the series on Escherichia coli DH5α, the “MIC, E. Coli DH5α, Gram(−)” value was found to be 1.56 µM (≈ 3.11 µg/mL). Also, the “Hemolysis (concentration at which hemolytic activity is exhibited)” value in the series on human red blood cells was found to be 100 µM.
